These results are taken from ChEMBL document CHEMBL4364294 (J Med Chem, 2019).

Converted amounts (≈) assume the structure as drawn.

Data set [1] in a line: Intrinsic clearance in human liver microsomes. The class given is ADME, Microsome. Particulars: read-out: CLH. (Microsomes from liver hold many membrane-bound enzymes, among them those of drug oxidation.)
Data set [2] can be described thus: Aqueous solubility of the compound at pH 1. The class given is physicochemical.
Data set [3] is described as follows: Aqueous solubility of the compound at pH 6.5. The class given is physicochemical.
Data set [4] can be described thus: Aqueous solubility of the compound at pH 7.4. The class given is physicochemical.

Turning to `O[C@@H](C[C@H]1c2c(F)cccc2-c2cncn21)[C@H]1CC[C@H](O)CC1`, the predicted hepatic clearance in data set [1] was 6.2 mL/min/kg.

In the case of `OC1CCC(C(O)CC2c3c(F)cccc3-c3cncn32)CC1` (centres undefined), the predicted hepatic clearance in data set [1] was 4.06 mL/min/kg. Besides, the solubility in data set [2] amounted to 353 µM (≈ 112 µg/mL); in data set [3], 329 µM (≈ 104 µg/mL); in data set [4] it was 316 µM (≈ 100 µg/mL).

For `O[C@@H](C[C@H]1c2c(F)cccc2-c2cncn21)[C@H]1CC[C@@H](O)CC1`, the predicted hepatic clearance in data set [1] was 12.7 mL/min/kg.

As for `OC(CC1c2c(F)cccc2-c2cncn21)C1CCC(F)(F)CC1` (centres undefined), in data set [1], the predicted hepatic clearance was 15.3 mL/min/kg.

Regarding `OC(CC1c2c(F)cccc2-c2cncn21)C1CCCCC1` (centres undefined), the predicted hepatic clearance in data set [1] was 18.9 mL/min/kg.

Turning to `O=C1CCC(C(O)CC2c3c(F)cccc3-c3cncn32)CC1` (centres undefined), in data set [1], the predicted hepatic clearance was 20.3 mL/min/kg.

Broadly, the solubility is the dissolved amount per volume that the medium holds. The low end stands for a poorly soluble substance, the high end for a readily soluble substance.
